Assay results reported in the supplement of paper PMC10883282.

Tests used:
VA-ES-BJ [1] = test: relative viability vs DMSO control (72 h) (fraction); higher = more viable cells
In short: (§1)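 Sarcoma cell lines were plated in 384 wells to reach 80–90% confluence, treated after 24 h with 2.5 µl of serially diluted compound and held 72 h at 37 °C, 5% CO2. Relative viability was taken as percent growth from ATPLite readings, averaged over up to triplicate wells. The values were rescaled so that 1 marks full and 0 marks none.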

HT1080 [2] = test: as above
In short: as §1

KHOS-NP [3] = test: as above
In short: as §1

RD-ES [4] = test: as above
In short: as §1

RD [5] = test: as above
In short: as §1

SW982 = test: standardised AUC of viability dose-response curve (72 h) (fraction (0-1)); higher = less growth inhibition (more resistant)
In short: (§2)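 In 384-well plates, sarcoma cell lines were exposed for 72 h, in triplicate, to 2.5 µl of a 1:3 compound dilution series whose compound-plate concentrations ran from 10 mM to 0.0002 mM. Four-parameter log-logistic models were fitted per drug and cell line to ATPLite viability, scaled 1 (full) to 0 (none). From these fits, a modified drexplorer computeAUC gave the standardised area under the curve in log-dose space. Here 1 marks no response and 0 full response.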

VA-ES-BJ [6] = test: as above
In short: as §2

HT1080 [7] = test: as above
In short: as §2

SYO-1 = test: as above
In short: as §2

KHOS-NP [8] = test: as above
In short: as §2

SK-ES-1 = test: as above
In short: as §2

HS729 = test: as above
In short: as §2

A204 = test: as above
In short: as §2

RD-ES [9] = test: as above
In short: as §2

SW1353 = test: as above
In short: as §2

SW684 = test: as above
In short: as §2

MES-SA = test: as above
In short: as §2

KHOS-240S = test: as above
In short: as §2

SK-LMS-1 = test: as above
In short: as §2

RD [10] = test: as above
In short: as §2

SW872 = test: as above
In short: as §2

G401 = test: as above
In short: as §2

CN(C)CCCOc1ccc(-c2ccc3ncc4c(c3c2)n(C2CCOCC2)c(=O)n4C)cn1 [AZD-0156]
relative viability
Settings | HT1080 [2] | KHOS-NP [3] | RD [5] | RD-ES [4] | VA-ES-BJ [1]
0.00017 µM | 1.04 | 1.1 | 1.04 | 0.944 | 1.118
0.00051 µM | 1.1 | 1.107 | 1.08 | 1.01 | 1.11
0.00152 µM | 1.091 | 1.09 | 1.07 | 1.03 | 1.09
0.00457 µM | 1.12 | 1.1 | 1.1 | 1 | 1.09
0.01372 µM | 1.09 | 1.09 | 1.08 | 0.861 | 1.04
0.04115 µM | 1.09 | 1.088 | 1.11 | 0.839 | 0.949
0.1235 µM | 1.07 | 1.11 | 1.07 | 0.7218 | 0.81
0.3704 µM | 1.06 | 1.09 | 1.076 | 0.69 | 0.674
1.111 µM | 1.09 | 1.03 | 0.949 | 0.616 | 0.462
3.333 µM | 1.11 | 1.02 | 0.592 | 0.548 | 0.453
10 µM | 1.026 | 0.764 | 0.536 | 0.36 | 0.348

Settings | standardised AUC
A204 | 0.854
G401 | 0.963
HS729 | 0.883
HT1080 [7] | 0.991
KHOS-240S | 0.914
KHOS-NP [8] | 0.975
MES-SA | 0.887
RD [10] | 0.921
RD-ES [9] | 0.785
SK-ES-1 | 0.748
SK-LMS-1 | 0.858
SW684 | 0.891
SW872 | 0.749
SW982 | 0.752
SW1353 | 0.917
SYO-1 | 0.777
VA-ES-BJ [6] | 0.753

CS(=O)(=O)CCNCc1ccc(-c2ccc3ncnc(Nc4ccc(OCc5cccc(F)c5)c(Cl)c4)c3c2)o1 [Lapatinib]
relative viability
Settings | HT1080 [2] | KHOS-NP [3] | RD [5] | RD-ES [4] | VA-ES-BJ [1]
0.00017 µM | 1.04 | 1.059 | 1.09 | 0.951 | 1.019
0.00051 µM | 1.035 | 1.055 | 1.1 | 0.948 | 1.01
0.00152 µM | 1.04 | 1.05 | 1.09 | 0.954 | 1.02
0.00457 µM | 1.05 | 1.07 | 1.11 | 0.958 | 1.03
0.01372 µM | 1.07 | 1.055 | 1.08 | 0.963 | 1.01
0.04115 µM | 1.04 | 1.053 | 1.12 | 0.964 | 0.992
0.1235 µM | 1.04 | 1.06 | 1.09 | 0.97 | 0.993
0.3704 µM | 1.059 | 1.1 | 1.1 | 0.977 | 0.979
1.111 µM | 1.1 | 1.07 | 1.1 | 0.951 | 0.985
3.333 µM | 1.09 | 1.02 | 0.98 | 0.931 | 0.927
10 µM | 0.674 | 0.93 | 0.0224 | 0.909 | 0.451

O=C1CCc2c(Oc3ccc4c(c3)[C@@H]3[C@H](O4)[C@H]3c3nc4cc(C(F)(F)F)ccc4[nH]3)ccnc2N1 [Lifirafenib]
relative viability
Settings | HT1080 [2] | KHOS-NP [3] | RD [5] | RD-ES [4] | VA-ES-BJ [1]
0.00017 µM | 1.09 | 1.07 | 1.08 | 0.9742 | 1.037
0.00051 µM | 1.05 | 1.07 | 1.1 | 0.997 | 1.039
0.00152 µM | 1.046 | 1.07 | 1.09 | 0.98 | 1.046
0.00457 µM | 1.08 | 1.07 | 1.13 | 0.991 | 1.03
0.01372 µM | 1.07 | 1.064 | 1.11 | 1 | 1.03
0.04115 µM | 1.11 | 1.05 | 1.13 | 0.981 | 1.04
0.1235 µM | 1.09 | 1.06 | 1.11 | 0.992 | 1.09
0.3704 µM | 1.09 | 1.07 | 1.039 | 1.04 | 1.108
1.111 µM | 1.04 | 0.8425 | 0.947 | 1.02 | 1.11
3.333 µM | 0.9439 | 0.433 | 0.787 | 0.954 | 1.09
10 µM | 0.491 | 0.321 | 0.5251 | 0.822 | 0.798
